These results are taken from US10654834B2 (Venenum Biodesign, LLC, priority 2016, dated 2020).

This assay addresses T1, mouse TGR5 receptor (Mus musculus, UniProt Q80SS6).
T1 construct: host or cells: HEK293-EBNA (293 c18, ATCC CRL10852)
T1 sequence (Q80SS6 1-329): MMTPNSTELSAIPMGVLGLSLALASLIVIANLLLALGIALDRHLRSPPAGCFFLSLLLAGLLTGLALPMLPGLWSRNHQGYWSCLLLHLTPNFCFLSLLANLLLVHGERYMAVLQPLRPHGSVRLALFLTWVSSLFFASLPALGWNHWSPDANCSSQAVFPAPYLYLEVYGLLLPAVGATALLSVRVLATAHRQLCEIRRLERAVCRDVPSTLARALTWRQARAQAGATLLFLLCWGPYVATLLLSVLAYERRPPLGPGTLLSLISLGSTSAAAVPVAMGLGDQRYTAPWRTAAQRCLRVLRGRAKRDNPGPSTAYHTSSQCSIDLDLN
Kind of assay: Mouse TGR5 luminescent cAMP production assay (HEK293-EBNA cells, DiscoveRx cAMP XS+ kit). It counts as cell-based. The following applies: HEK293-EBNA cells overexpressing mouse TGR5, luminescent cAMP assay; read-out: Mouse TGR5 Lum. cAMP Activity (EC50). The gist of the method: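 HEK293-EBNA cells stably expressing mouse TGR5, resuspended in serum-free DMEM with 500 μM IBMX, were premixed 20 min with cAMP antibody, then exposed to half-log compound dilutions for 1 h at room temperature. cAMP was read by luminescent enzyme-fragment complementation (cAMP XS+) after overnight incubation; EC50 derived.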

As to `N#Cc1ccc(CCNC(=O)[C@@H]2CCCN2c2cc(N3CCC(CO)CC3)nc(C(F)(F)F)n2)cc1` [Compound 1, (S)—N-(4-cyanophenethyl)-1-(6-(4-(hydroxymethyl)piperidin-1-yl)-2-(trifluoromethyl)pyrimidin-4-yl)pyrrolidine-2-carboxamide], the EC50 was less than 100 nM.
